Data set [1] can be described thus: Boiling temperature at pressure P. The conditions noted are these: 101 kPa; Liquid; Ebulliometric method (Recirculating still).
For data set [2] the following is noted: 298.15 K; 101.33 kPa; Liquid; Pycnometric method.
Data set [3] is described as follows: refractive index (Na D-line) (dimensionless). The conditions noted are these: 298.15 K; 101.33 kPa; Liquid; Standard Abbe refractometry.

These results are taken from the NIST ThermoML archive (doi:10.1021/je4007184).

The term mass density denotes the mass of a sample divided by its volume. In general, refractive index refers to a measure of how strongly the sample bends light.

Numbers after ± are expanded uncertainties.

With `CC(C)CCO` [3-methylbutan-1-ol], the “Boiling temperature at pressure P” value in data set [1] amounted to 131.1 ± 0.4 °C. For the same compound, the mass density in data set [2] stood at 811.04 ± 0.6 kg/m3. Also, in data set [3], the refractive index came out at 1.4155 ± 0.0005.

Regarding `CCCOC(C)=O` [propyl ethanoate], the “Boiling temperature at pressure P” value in data set [1] was 101.5 ± 0.4 °C. Further, in data set [2], the mass density turned out to be 882.8 ± 0.68 kg/m3. Also, the refractive index in data set [3] is recorded as 1.3821 ± 0.0005.

With `CCCCCO` [pentan-1-ol], in data set [1], the “Boiling temperature at pressure P” value was determined as 137.8 ± 0.4 °C. Moreover, the mass density in data set [2] is reported as 810.12 ± 0.6 kg/m3. For the same compound, the refractive index in data set [3] was 1.4078 ± 0.0005.

For `CCCC(C)O` (configuration not stated) [pentan-2-ol], the “Boiling temperature at pressure P” value in data set [1] stood at 119.1 ± 0.4 °C. Also, the mass density in data set [2] worked out at 806.57 ± 0.61 kg/m3. The refractive index in data set [3] came out at 1.4048 ± 0.0005.
